The results in this text go back to US20090326003A1, “PYRAZOLO (3, 4-B) PYRIDINE DERIVATIVES AS PDE4 INHIBITORS” (priority 2006, published 2009).

Each structure is given as a SMILES string.

For experiment [1], the system named is TNF-α production in human PBMC (peripheral blood mononuclear cells). Kind of experiment: Inhibition of TNF-alpha production in human PBMC (MSD technology). The conditions noted are these: inhibition of LPS-stimulated TNF-α production in human PBMC; measured and/or mean; read-out: PBMC pIC50 (MSD assay) (converted). It is filed as cell-based. How it is done: A 96-well plate (96 MicroWell™ Plates Nunclon™Δ-High Flange Design, Fisher Scientific UK, Bishop Meadow Road, Loughborough LE 11 5 RG, Leicestershire, UK) is prepared by initially adding to column 1 ca. 10 mM of test compound dissolved in DMSO. […] The compound is further diluted with DMSO into columns 2 to 9 by 8 successive 3fold dilutions using the Biomek® FX Laboratory Automation Workstation (Beckman Coulter, Inc., 4300 N. Harbor Boulevard, P.O. Box 3100, Fullerton, Calif. 92834-3100 USA). Column 10 is used as a DMSO negative control (High Signal, 0% response), whilst column 11, which contains 10 mM of the PDE4 inhibitor roflumilast, is used as a positive control (Low Signal, 100% response). About 1 μl (about 1 ul) of compound is transferred to the compound plate using the Biomek® FX.
PBMC cells (peripheral blood mononuclear cells) are prepared from heparinised human blood (using 1% v/v Heparin Sodium 10001 U/ml Endotoxin Free, Leo Laboratories Ltd., Cashel Road, Dublin 12. Ireland, Cat No: PL0043/0149) from normal volunteers using the Accuspin™ System-Histopaque®-1077 essentially (Sigma-Aldrich Company Ltd., The Old Brickyard New Rd, Gillingham Dorset SP8 4XT). About 20 ml of blood is overlaid onto 15 ml Histopaque® in Accuspin™ tubes. The tube is then centrifuged at about 800 g for ca. 20 minutes. The cells are collected from the interface, washed by centrifugation (ca. 1300 g, ca. 10 minutes) and resuspended in RPMI1640 medium (Low endotoxin RPMI1640 medium, Cat No: 31870-025, Invitrogen Corporation Invitrogen Ltd, 3 Fountain Drive, Inchinnan Business Park, Paisley PA4 9RF, UK) containing 10% foetal calf serum, 1% L-glutamine (Invitrogen Corporation, Cat No: 25030024) and 1% penicillin/streptomycin (Invitrogen Corporation, Cat No: 15140-122). Viable cells are counted by trypan blue staining and diluted to 1×10^6 viable cells/ml. About 50 μl (about 50 ul) of diluted cells and about 75 μl (about 75 ul) of LPS (ca. 1 ng/ml final; Sigma Cat No: L-6386) are added to the compound plate, which is then incubated at 37° C., 5% CO2, for 20 hours.
The supernatant is removed and the concentrations of TNF-α are determined by electrochemiluminescence assay using the Meso Scale Discovery (MSD) technology (Meso Scale Discovery, 9238 Gaither Road, Gaithersburg, Md. 20877, USA). See the “TNF-α (TNF-alpha) MSD Assay” described below for typical details.
Using the Biomek FX, 25 μl (25 ul) of MSD Human Serum Cytokine Assay Diluent (Meso Scale Discovery, 9238 Gaither Road, Gaithersburg, Md. 20877) is added to a 96-well High-Bind MSD plate pre-coated with anti-hTNF alpha capture antibody (MA6000) and then incubated for 24 hours at 4° C. to prevent non-specific binding. […]
For the PBMC assay, about 20 μl (ul) of diluted sulfo-TAG antibody (ca. 1 μg/ml final) is added to each well, and the plates/wells are shaken at room temperature for 2 hours. Finally, about 90 μl (ul) of MSD Read Buffer P (diluted to 2.5 times with distilled water) is added and the plates are read on a MSD Sector 6000.
Data analysis is performed with ActivityBase/XC50 module (ID Business Solutions Ltd., 2 Occam Court, Surrey Research Park, Guildford, Surrey, GU2 7QB UK). Data are normalized and expressed as % inhibition using the formula 100*((U-C1)/(C2-C1)) where U is the unknown value, C1 is the average of the high signal (0%) control wells (column 10), and C2 is the average of the low signal (100%) control wells (column 11). […]

The test system is the same in experiment [2]. In words: Inhibition of TNF-alpha production in human PBMC (IGEN technology). It is filed as cell-based. The note with it: inhibition of LPS-stimulated TNF-α production in human PBMC; measured and/or mean; read-out: PBMC pIC50 (IGEN assay) (converted). How it is done: Test compounds are prepared as a ca. 10 mM stock solution in DMSO and a dilution series prepared in DMSO with 8 successive 3fold dilutions, either directly from the 10 mM stock solution or from a more dilute solution in DMSO. The compound is added to assay plates using a Biomek Fx liquid handling robot.
PBMC cells (peripheral blood mononuclear cells) are prepared from heparinised human blood from normal volunteers by centrifugation on histopaque at ca. 1000 g for ca. 30 minutes. The cells are collected from the interface, washed by centrifugation (ca. 1300 g, ca. 10 minutes) and resuspended in assay buffer (RPMI 1640 containing 10% foetal calf serum, 1% L-glutamine and 1% penicillin/streptomycin) at 1×10^6 cells/ml. Ca. 50 μl (ca. 50 ul) of cells are added to microtitre wells containing ca. 0.5 or ca. 1.0 μl (ul) of an appropriately diluted compound solution. Ca. […]
The supernatant is removed and the concentrations of TNF-α are determined by electrochemiluminescence assay using the IGEN technology or by ELISA (see below).
Ca. […] 50 μl (ul) of streptavidin/biotinylated anti-TNF-α antibody mix, ca. 25 μl ruthenium tagged anti-TNF-α monoclonal and ca. 100 μl PBS containing 0.1% bovine serum albumin are added to each well and the plates are sealed and shaken for ca. 2 hours before being read on an IGEN instrument.

Consider `CCn1ncc2c(NC3CCOCC3)c(CNC(=O)c3cccc(-c4cccc(C(=O)NCc5c(C)nc6c(cnn6CC)c5NC5CCOCC5)c4)c3)c(C)nc21` [Example 29, N,N′-bis{[1-ethyl-6-methyl-4-(tetrahydro-2H-pyran-4-ylamino)-1H-pyrazolo[3,4-b]pyridin-5-yl]methyl}-3,3′-biphenyldicarboxamide], for which, in experiment [1], the IC50 is roughly 0.794 nM.
The same measure, in the same setting: to `CCc1nc2c(cnn2CC)c(NC2CCOCC2)c1CNC(=O)c1ccc(C(=O)NCc2c(CC)nc3c(cnn3CC)c2NC2CCOCC2)o1` [Example 35, N,N′-bis{[1,6-diethyl-4-(tetrahydro-2H-pyran-4-ylamino)-1H-pyrazolo[3,4-b]pyridin-5-yl]methyl}-2,5furandicarboxamide] belongs roughly 0.1 nM.
On to `CCc1nc2c(cnn2CC)c(NC2CCOCC2)c1CNC(=O)c1ccc(-c2ccc(C(=O)NCc3c(CC)nc4c(cnn4CC)c3NC3CCOCC3)cc2)cc1` [Example 23, N,N′-bis{[1,6-diethyl-4-(tetrahydro-2H-pyran-4-ylamino)-1H-pyrazolo[3,4-b]pyridin-5-yl]methyl}-4,4′-biphenyldicarboxamide], for which the IC50 in experiment [2] is roughly 0.0501 nM; in experiment [1] it was roughly 0.126 nM.
